Measured values from article PMC8568133, “Evaluation of bisphenylthiazoles as a promising class for combating multidrug-resistant fungal infections” (PLoS ONE, 2021).
≈ marks a conversion by molar mass, not a printed value. Where two headings read alike, the source gives them in different places.

Experiments:
Candida albicans = test: Antifungal broth microdilution MIC (50% growth inhibition) and MFC; type: cell-based; details: Candida albicans; for MIC: read-out: MIC
In short: (§1)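 MICs came from CLSI broth microdilution against clinical isolates, scored as 50% inhibition at 35 °C after 24 h (Candida) or 48 h (Cryptococcus). MFC is the lowest concentration cutting growth by 99.9% on YPD agar.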

Cryptococcus neoformans = test: Antifungal broth microdilution MIC (50% growth inhibition, 48 h); type: cell-based; details: Cryptococcus neoformans, read-out: MIC
In short: as §1

Cryptococcus gattii = test: as above; type: cell-based; details: Cryptococcus gattii, read-out: MIC
In short: as §1

Candida auris = test: Checkerboard assay of compound 17 with standard antifungals; type: cell-based; details: for MIC: Candidozyma auris, checkerboard, agent alone
Protocol: To evaluate the interactions between bisphenylthiazoles and the standard antifungal agents (fluconazole, amphotericin B, 5-fluorocytosine and caspofungin) against 2 C. auris clinical isolates, a standard checkerboard assay was utilized as described in previous studies. The fractional inhibitory concentration index (FICI) was calculated for each interaction. Interactions where the FICI was ≤0.5 were categorized as synergistic (SYN). FICI values of >0.5–1.25 were categorized as additive (ADD). FICI values of >1.25–4 were categorized as indifferent, and FICI values of > 4 were categorized as antagonistic. The experiment was repeated three independent times.

[1] = system: E. coli JW55031 (tolC-mutant); test: microbe, parasite or virus in culture; type: cell-based, Escherichia coli; details: Escherichia coli
In short: (§2)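 Broth microdilution per CLSI with ~5 × 10^5 CFU/mL inoculum and serially diluted compounds. S. aureus and E. coli were tested in CAMHB, aerobic, 37 °C, 18–20 h; C. difficile in supplemented brain heart infusion broth (yeast extract, hemin, vitamin K), anaerobic, 37 °C, 48 h. MIC read as visible growth.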

Candida strains = test: Minimum fungicidal concentration, summary over Candida strains; type: cell-based; details: strains of Table 6
Protocol: Serial dilutions (from 128 μg/mL to 0.06 μg/mL) of the tested compounds and control drugs (fluconazole, itraconazole and amphotericin) (in triplicates), were screened against clinical isolates of Candida albicans, Candida auris, Candida glabrata, Candida parapsilosis, Candida tropicalis, Candida krusei, Cryptococcus neoformans, Cryptococcus gattii and Aspergillus fumigatus species using the broth microdilution method according to the Clinical and Laboratory Standards Institute guidelines. MICs were determined as the lowest concentration of the compounds that inhibited the fungal growth by 50% after incubation at 35 °C for 24 h (for Candida and Aspergillus), or 48 h (for Cryptococcus). The minimum fungicidal concentration (MFC) of these compounds was tested by plating 4 μL from wells with no growth onto YPD agar plates. The plates were incubated at 37 °C for 24 hours before recording the MFC, which was categorized as the lowest concentration that reduced fungal growth by 99.9% [45]. The experiment was repeated three independent times.

[2] = system: C. difficile ATCC BAA1870; test: Broth microdilution MIC, initial antibacterial screening (anaerobic); type: cell-based, Clostridioides difficile; details: Clostridioides difficile, ATCCBAA1870, read-out: MIC
In short: as §2

[3] = system: Lactobacillus crispatus HM-370; test: Broth microdilution MIC against normal human microbiota; type: cell-based; details: HM370; Lactobacillus crispatus HM-370; read-out: MIC
In short: (§3)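 Inoculum of about 5 x 10^5 CFU/mL in MRS broth, with compounds serially diluted in triplicate. MICs read after 48 hours at 37 °C; three independent repeats.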

[4] = system: Lactobacillus gasseri HM-400; test: as above; type: cell-based; details: HM400; Lactobacillus gasseri HM-400; read-out: MIC
In short: as §3

[5] = system: Lactobacillus casei ATCC-334; test: as above; type: cell-based; details: Lacticaseibacillus casei, ATCC334; Lactobacillus casei ATCC-334; read-out: MIC
In short: as §3

[6] = system: E. coli BW25113 (wild-type); test: Broth microdilution MIC, initial antibacterial screening; type: cell-based, Escherichia coli; details: Escherichia coli, read-out: MIC
In short: as §2

MRSA USA300 = test: as above; type: cell-based, S. aureus; details: Staphylococcus aureus; MRSA USA300; read-out: MIC
In short: as §2

[7] = system: human colorectal cells (Caco-2); test: In vitro cytotoxicity, MTS assay; details: human, 24 h
Protocol: (§4) Fig 2 In vitro cytotoxicity assay of bisphenylthiazole compounds 7, 16 and 17 (tested in triplicates at 32, 64 and 128 μg/mL) against: A) human colorectal cells (Caco-2), and B) monkey kidney epithelial cells (Vero) after 24-hours exposure time, using the MTS 3-(4,5-dimethylthiazol-2-yl)-5-(3-carboxymethoxyphenyl)-2-(4-sulfophenyl)-2H-tetrazolium) assay. The data represent the percentage of viable Caco-2 or Vero cells measured as the average absorbance relative to DMSO after exposure to the tested compounds. Dimethyl sulfoxide (DMSO) was used as a negative control. Error bars represent the standard deviation values.
(§5) To explore the tolerability of bisphenylthiazoles, their cytotoxicity profile was assessed in human colorectal adenocarcinoma (Caco-2) and monkey kidney epithelial cells (Vero) as described earlier. Briefly, compounds were incubated with the cells for 24 hours. Then, cells were incubated with MTS reagent for 3 hours before measuring the absorbance values (OD490). The experiment was repeated in two independent times.

[8] = system: monkey kidney epithelial cells (Vero); test: In vitro cytotoxicity, MTS assay
Protocol: as §4, §5

[9] = ATCC10231, C. albicans ATCC 10231

Work on `Cc1nc(-c2ccc(-c3ccccc3)cc2)sc1-c1nnc(N[C@@H]2CCCC[C@@H]2N)o1` (relative stereo) [Compound 17, cis-N-{5-[2-((1,1’-Biphenyl)-4-yl)-4-methylthiazol-5-yl]-1,3,4-oxadiazol-2-yl}cyclo-hexane-1,2-diamine] yielded an MFC (Candida albicans; [9]) greater than 64 µg/mL, an MIC (Candida albicans; [9]) of 4 µg/mL (≈ 9.27 µM) and an MIC (Candida albicans; C. albicans NR-29448 (fluconazole-resistant)) of 2 µg/mL (≈ 4.63 µM). The MIC (Candida albicans; C. albicans SS5314 (wild-type)) was 1 µg/mL (≈ 2.32 µM), the MFC (Candida albicans; C. albicans NR-29448) was greater than 64 µg/mL and the MIC (Cryptococcus neoformans; C. neoformans NR 41298) was 1 µg/mL (≈ 2.32 µM). The MIC (Cryptococcus neoformans; C. neoformans NR 41300) was 1 µg/mL (≈ 2.32 µM), the MIC (Cryptococcus neoformans; C. neoformans NR 48770) was 1 µg/mL (≈ 2.32 µM) and the MIC (Cryptococcus gattii; C. gattii NR 43209) was 0.5 µg/mL (≈ 1.16 µM). The MIC (Cryptococcus gattii; C. gattii NR 43210) was 0.5 µg/mL (≈ 1.16 µM), the “MIC Combined, 17” value (Candida auris; Candida auris 381, compound 17 in combination with 5-Fluorocytosine) was 0.25 µg/mL and the “MIC Combined, 17” value (Candida auris; Candida auris 381, compound 17 in combination with Amphotericin B) was 0.25 µg/mL. For the same compound, the “MIC Combined, 17” value (Candida auris; Candida auris 381, compound 17 in combination with Caspofungin) was 0.25 µg/mL, the “MIC Combined, 17” value (Candida auris; Candida auris 381, compound 17 in combination with Fluconazole) was 0.25 µg/mL and the “MIC Combined, 17” value (Candida auris; Candida auris 385, compound 17 in combination with 5-Fluorocytosine) was 0.25 µg/mL. The “MIC Combined, 17” value (Candida auris; Candida auris 385, compound 17 in combination with Amphotericin B) was 0.25 µg/mL, the “MIC Combined, 17” value (Candida auris; Candida auris 385, compound 17 in combination with Caspofungin) was 0.25 µg/mL and the “MIC Combined, 17” value (Candida auris; Candida auris 385, compound 17 in combination with Fluconazole) was 2 µg/mL. The MIC (Candida auris; Candida auris 381 (azole-sensitive)) was 1 µg/mL, the MIC (Candida auris; Candida auris 385 (azole-resistant)) was 2 µg/mL and the “relationship when combined with antifungals” value (Candida auris; combined with either fluconazole, 5-fluorocytosine or caspofungin, two tested C. auris isolates) was “additive”. The melting point was 145 to 146 °C, the MIC [1] was greater than 64 µg/mL and the “fungistatic or fungicidal activity” value (Candida strains) was “fungistatic”. The MIC [2] was 64 µg/mL (≈ 148 µM), the MIC [3] was greater than 128 µg/mL and the MIC [4] was 128 µg/mL (≈ 297 µM). It also gave an MIC [5] of 128 µg/mL (≈ 297 µM), an MIC [6] greater than 64 µg/mL and an MIC (MRSA USA300) greater than 64 µg/mL. For the same compound, the “concentration up to which non-toxic” value [7] was no more than 64 µg/mL, the “concentration up to which non-toxic” value ([8]; Vero, 24 h exposure, MTS) was no more than 64 µg/mL and the “times more tolerable than amphotericin B” value ([8]; relative to amphotericin B) was 16 times.
